Source: paper PMC10221074, “Functional Profiling of the A-Family of Venom Peptides from the Wolf Spider Lycosa shansia” (Toxins, 2023)

How the values were obtained:
[1] = tested on: Staphylococcus epidermidis DSM 28319; assay: Antibacterial growth assay (OD600); conditions: OD600, medium = 100, MH II broth, 37 °C, peptide 200 µM mixed 50 µL + 50 µL with bacteria, Figure 7: 48 h; for Bacterial growth relative to medium, S. epidermidis, replicate 1: replicate column 1; for Bacterial growth relative to medium, S. epidermidis, replicate 2: replicate column 2; for Bacterial growth relative to medium, S. epidermidis, replicate 3: replicate column 3
Experimental: (§1) Cryo-conserved cultures of selected bacterial strains (Table 4) were transferred to Tryptic Soy Agar (TSA) plates (Carl Roth) with a sterile inoculation loop, sealed with Parafilm (BEMIS, Neenah, WI, USA), and incubated for 1–2 days at 37 °C depending on growth. Single colonies were picked and transferred into 2–3 mL of the Mueller–Hinton II (MH II) broth (BD, Heidelberg, Germany). The bacteria were cultivated overnight, subcultured on fresh medium and grown for 3–4 h before testing at 37 °C, with shaking at 180 rpm. We measured the optical density at 600 nm (OD600) of 1 mL of the bacterial suspensions in polystyrene cuvettes (SARSTED, Nümbrecht, Germany) using an Ultrospec 10 spectrophotometer (Biochrome, Cambridge, UK). We then diluted them with the MH II medium to the preferred OD600 (Table 2). The peptides were dissolved in DMSO to generate 10 mmol/L stocks and diluted with the MH II medium to 200 µM before the assay. We used 10 µg/mL (~40 µg/mL for S. epidermidis) gentamicin and colistin (Sigma-Aldrich, Taufkirchen, Germany), DMSO and the medium only as controls. The bacteria were transferred to 96-multiwell plates with a final volume of 100 µL per well (50 µL bacterial suspension, and 50 µL test peptide). The OD600 was measured at 0, 24 and 48 h using a BioTek Eon microplate reader followed by analysis with Gen5 v2.09.

A/Hessen/1/2003 (H3N2) = format: cell-based, influenza virus
[2] = tested on: Escherichia coli BL21(DE3); assay: Antibacterial growth assay (OD600); conditions: OD600, medium = 100, MH II broth, 37 °C, peptide 200 µM mixed 50 µL + 50 µL with bacteria, Figure 7: 48 h; for Bacterial growth relative to medium, E. coli, replicate 1: replicate column 1; for Bacterial growth relative to medium, E. coli, replicate 2: replicate column 2; for Bacterial growth relative to medium, E. coli, replicate 3: replicate column 3
Experimental: as §1

[3] = tested on: Pseudomonas aeruginosa DSM 50071; assay: Antibacterial growth assay (OD600); conditions: OD600, medium = 100, MH II broth, 37 °C, peptide 200 µM mixed 50 µL + 50 µL with bacteria, Figure 7: 48 h; for Bacterial growth relative to medium, P. aeruginosa (50071), replicate 1: replicate column 1; for Bacterial growth relative to medium, P. aeruginosa (50071), replicate 2: replicate column 2; for Bacterial growth relative to medium, P. aeruginosa (50071), replicate 3: replicate column 3
[4] = tested on: Micrococcus luteus DSM 20030; assay: Antibacterial growth assay (OD600); conditions: for Antibacterial activity (in words): M. luteus DSM 20030, growth after 48 h; for Bacterial growth relative to medium, M. luteus, replicate 1 / Bacterial growth relative to medium, M. luteus, replicate 2 / Bacterial growth relative to medium, M. luteus, replicate 3: OD600, medium = 100, MH II broth, 37 °C, peptide 200 µM mixed 50 µL + 50 µL with bacteria, Figure 7: 48 h; for Bacterial growth relative to medium, M. luteus, replicate 1: replicate column 1; for Bacterial growth relative to medium, M. luteus, replicate 2: replicate column 2; for Bacterial growth relative to medium, M. luteus, replicate 3: replicate column 3
A/Hamburg/05/2009 (H1N1) = format: cell-based, influenza virus
[5] = tested on: Pseudomonas aeruginosa DSM 1117; assay: Antibacterial growth assay (OD600); conditions: OD600, medium = 100, MH II broth, 37 °C, peptide 200 µM mixed 50 µL + 50 µL with bacteria, Figure 7: 48 h; for Bacterial growth relative to medium, P. aeruginosa (1117), replicate 1: replicate column 1; for Bacterial growth relative to medium, P. aeruginosa (1117), replicate 2: replicate column 2; for Bacterial growth relative to medium, P. aeruginosa (1117), replicate 3: replicate column 3
[6] = tested on: Staphylococcus aureus DSM 2569; assay: Antibacterial growth assay (OD600); conditions: OD600, medium = 100, MH II broth, 37 °C, peptide 200 µM mixed 50 µL + 50 µL with bacteria, Figure 7: 48 h; for Bacterial growth relative to medium, S. aureus, replicate 1: replicate column 1; for Bacterial growth relative to medium, S. aureus, replicate 2: replicate column 2; for Bacterial growth relative to medium, S. aureus, replicate 3: replicate column 3
[7] = tested on: B/Malaysia/2506/2004 (B-Mal); format: cell-based, influenza virus
G. mellonella larvae = assay: Insecticidal activity by injection into larvae; format: in vivo, Galleria mellonella; conditions: 50 ng peptide injected, 3 cohorts of 10 larvae, survival monitored for 5 days
Experimental: Insecticidal activity was determined using fourth and fifth instar G. mellonella larvae (L4/L5) obtained from Fauna Topics Zoobedarf Zucht und Handels GmbH (Marbach am Neckar, Germany). Because spider venom is injected via chelicerae, we opted for an injection-based assay to reflect the natural process of envenomation as described earlier. The peptides were dissolved in a 1:1 mixture of DMSO and water to a final concentration of 10 mmol/L. We injected 50 ng of each peptide into the pseudopodium using Omnican-F, 0.30 × 12 mm/G 30 × 1/2”, a 1 mL syringe adjusted to a WPI manual microsyringe injector setup. Injections with water, DMSO/water (1:1) and ethanol (90%) were used as controls, alongside untreated specimens. Insecticidal activity screenings were performed in cohorts of 10 larvae with 3 replicates (30 specimens per treatment or control). […] Survival was monitored every 24 h for 5 days. Mortality was calculated based on the ratio of dead to injected specimens.

[8] = tested on: Listeria monocytogenes DSM 20600; assay: Antibacterial growth assay (OD600); conditions: OD600, medium = 100, MH II broth, 37 °C, peptide 200 µM mixed 50 µL + 50 µL with bacteria, Figure 7: 48 h; for Bacterial growth relative to medium, L. monocytogenes, replicate 1: replicate column 1; for Bacterial growth relative to medium, L. monocytogenes, replicate 2: replicate column 2; for Bacterial growth relative to medium, L. monocytogenes, replicate 3: replicate column 3
Experimental: as §1

[9] = tested on: panel of seven bacterial strains; assay: Antibacterial growth assay (OD600), statements on the whole panel; format: cell-based; conditions: growth after 48 h

Q: DVVKSKVGQT [LS-AMP-A20] was tested. Which “Bacterial growth relative to medium, S. epidermidis, replicate 1” value [1] did it give?
A: 65.0524

Q: And the “Bacterial growth relative to medium, S. epidermidis, replicate 2” value [1]?
A: 56.0414

Q: What about the “Bacterial growth relative to medium, S. epidermidis, replicate 3” value [1] of the same sequence?
A: 87.4721

Q: What about the “Viability of infected cells relative to aprotinin, Replicate 1” value (A/Hessen/1/2003 (H3N2)) of the same sequence?
A: 0.06093

Q: And the “Viability of infected cells relative to aprotinin, Replicate 2” value (A/Hessen/1/2003 (H3N2))?
A: 0.1556

Q: And the “Viability of infected cells relative to aprotinin, Replicate 3” value (A/Hessen/1/2003 (H3N2))?
A: 0.1529

Q: And the “Viability of infected cells relative to aprotinin, Replicate 4” value (A/Hessen/1/2003 (H3N2); […], replicate 4 (additional internal control))?
A: 0.1478

Q: And the “Bacterial growth relative to medium, E. coli, replicate 1” value [2]?
A: 95.2629

Q: And the “Bacterial growth relative to medium, E. coli, replicate 2” value [2]?
A: 75.2606

Q: What about the “Bacterial growth relative to medium, E. coli, replicate 3” value [2] of the same sequence?
A: 50.6769

Q: And the “Bacterial growth relative to medium, P. aeruginosa (50071), replicate 1” value [3]?
A: 100.814

Q: What about the “Bacterial growth relative to medium, P. aeruginosa (50071), replicate 2” value [3] of the same sequence?
A: 110.766

Q: What about the “Bacterial growth relative to medium, P. aeruginosa (50071), replicate 3” value [3] of the same sequence?
A: 86.151

Q: What about the “Antibacterial activity (in words)” value [4] of the same sequence?
A: strongest effect

Q: What about the “Bacterial growth relative to medium, M. luteus, replicate 1” value [4] of the same sequence?
A: 84.9437

Q: And the “Bacterial growth relative to medium, M. luteus, replicate 2” value [4]?
A: 89.1892

Q: And the “Bacterial growth relative to medium, M. luteus, replicate 3” value [4]?
A: 58.8713

Q: And the “Viability of infected cells relative to aprotinin, Replicate 1” value (A/Hamburg/05/2009 (H1N1))?
A: 0.03404

Q: And the “Viability of infected cells relative to aprotinin, Replicate 2” value (A/Hamburg/05/2009 (H1N1))?
A: 0.03606

Q: And the “Viability of infected cells relative to aprotinin, Replicate 3” value (A/Hamburg/05/2009 (H1N1))?
A: 0.06978

Q: And the “Bacterial growth relative to medium, P. aeruginosa (1117), replicate 1” value [5]?
A: 78.7161

Q: What about the “Bacterial growth relative to medium, P. aeruginosa (1117), replicate 2” value [5] of the same sequence?
A: 66.133

Q: What about the “Bacterial growth relative to medium, P. aeruginosa (1117), replicate 3” value [5] of the same sequence?
A: 53.5452

Q: And the “Bacterial growth relative to medium, S. aureus, replicate 1” value [6]?
A: 65.5327

Q: What about the “Bacterial growth relative to medium, S. aureus, replicate 2” value [6] of the same sequence?
A: 71.5501

Q: What about the “Bacterial growth relative to medium, S. aureus, replicate 3” value [6] of the same sequence?
A: 85.4097

Q: And the “Viability of infected cells relative to aprotinin, Replicate 1” value [7]?
A: 0.07308

Q: What about the “Viability of infected cells relative to aprotinin, Replicate 2” value [7] of the same sequence?
A: 0.07936

Q: And the “Viability of infected cells relative to aprotinin, Replicate 3” value [7]?
A: 0.06088

Q: And the “Insecticidal effect on larvae (in words)” value (G. mellonella larvae)?
A: Individual dead insects

Q: What about the “Bacterial growth relative to medium, L. monocytogenes, replicate 1” value [8] of the same sequence?
A: 113.144

Q: What about the “Bacterial growth relative to medium, L. monocytogenes, replicate 2” value [8] of the same sequence?
A: 85.2342

Q: What about the “Bacterial growth relative to medium, L. monocytogenes, replicate 3” value [8] of the same sequence?
A: 40.8896

Q: And the “Antibacterial activity over the panel (in words)” value [9]?
A: marginal effects against several bacteria

Q: With GSLLGLLDVVKSKVGQTGLL [LS-AMP-A19] as the sequence, how does the “Bacterial growth relative to medium, S. epidermidis, replicate 1” value [1] read?
A: 91.5432

Q: What about the “Bacterial growth relative to medium, S. epidermidis, replicate 2” value [1] of the same sequence?
A: 106.521

Q: And the “Bacterial growth relative to medium, S. epidermidis, replicate 3” value [1]?
A: 92.445

Q: What about the “Viability of infected cells relative to aprotinin, Replicate 1” value (A/Hessen/1/2003 (H3N2)) of the same sequence?
A: 0.07115

Q: And the “Viability of infected cells relative to aprotinin, Replicate 2” value (A/Hessen/1/2003 (H3N2))?
A: 0.1267

Q: And the “Viability of infected cells relative to aprotinin, Replicate 3” value (A/Hessen/1/2003 (H3N2))?
A: 0.119

Q: What about the “Bacterial growth relative to medium, E. coli, replicate 1” value [2] of the same sequence?
A: 95.9562

Q: And the “Bacterial growth relative to medium, E. coli, replicate 2” value [2]?
A: 82.2712

Q: What about the “Bacterial growth relative to medium, E. coli, replicate 3” value [2] of the same sequence?
A: 94.9872

Q: And the “Bacterial growth relative to medium, P. aeruginosa (50071), replicate 1” value [3]?
A: 103.493

Q: And the “Bacterial growth relative to medium, P. aeruginosa (50071), replicate 2” value [3]?
A: 107.483

Q: What about the “Bacterial growth relative to medium, P. aeruginosa (50071), replicate 3” value [3] of the same sequence?
A: 85.194

Q: And the “Antibacterial activity (in words)” value [4]?
A: strongly suppressed the growth

Q: What about the “Bacterial growth relative to medium, M. luteus, replicate 1” value [4] of the same sequence?
A: 38.8889

Q: What about the “Bacterial growth relative to medium, M. luteus, replicate 2” value [4] of the same sequence?
A: 63.626

Q: And the “Bacterial growth relative to medium, M. luteus, replicate 3” value [4]?
A: 16.4993

Q: What about the “Viability of infected cells relative to aprotinin, Replicate 1” value (A/Hamburg/05/2009 (H1N1)) of the same sequence?
A: 0.03506

Q: What about the “Viability of infected cells relative to aprotinin, Replicate 2” value (A/Hamburg/05/2009 (H1N1)) of the same sequence?
A: 0.03971

Q: And the “Viability of infected cells relative to aprotinin, Replicate 3” value (A/Hamburg/05/2009 (H1N1))?
A: 0.04612

Q: What about the “Bacterial growth relative to medium, P. aeruginosa (1117), replicate 1” value [5] of the same sequence?
A: 72.8823

Q: What about the “Bacterial growth relative to medium, P. aeruginosa (1117), replicate 2” value [5] of the same sequence?
A: 76.8187

Q: And the “Bacterial growth relative to medium, P. aeruginosa (1117), replicate 3” value [5]?
A: 66.0758

Q: And the “Bacterial growth relative to medium, S. aureus, replicate 1” value [6]?
A: 70.8601

Q: And the “Bacterial growth relative to medium, S. aureus, replicate 2” value [6]?
A: 71.4846

Q: What about the “Bacterial growth relative to medium, S. aureus, replicate 3” value [6] of the same sequence?
A: 83.7635

Q: And the “Viability of infected cells relative to aprotinin, Replicate 1” value [7]?
A: 0.02926

Q: What about the “Viability of infected cells relative to aprotinin, Replicate 2” value [7] of the same sequence?
A: 0.02406

Q: And the “Viability of infected cells relative to aprotinin, Replicate 3” value [7]?
A: 0.04584

Q: What about the “Insecticidal effect on larvae (in words)” value (G. mellonella larvae) of the same sequence?
A: Individual dead insects

Q: And the “Bacterial growth relative to medium, L. monocytogenes, replicate 1” value [8]?
A: 151.42

Q: What about the “Bacterial growth relative to medium, L. monocytogenes, replicate 2” value [8] of the same sequence?
A: 105.659

Q: And the “Bacterial growth relative to medium, L. monocytogenes, replicate 3” value [8]?
A: 60.4017

Q: What about the “Antibacterial activity over the panel (in words)” value [9] of the same sequence?
A: largely inactive
